Test results reported in the supplement of paper PMC10132981, “Formate overflow drives toxic folate trapping in MTHFD1 inhibited cancer cells” (Nature Metabolism, 2023).

Tests used:
SW620 MTHFD2-/- = test: EC50 for viability (resazurin, 96 h); settings: RPMI+GlutaMAX (5% dFBS, 1% P/S); metabolite supplement: Hypoxanthine + Formate
SW620 MTHFD2 -/- = test: EC50 for viability (resazurin, 96 h); settings: RPMI+GlutaMAX (5% dFBS, 1% P/S)
SW620 WT = test: EC50 for viability (resazurin, 96 h); settings: RPMI+GlutaMAX (5% dFBS, 1% P/S)
SW620 [1] = test: EC50 for viability (resazurin, 96 h)
SW620 [2] = test: cell viability relative to lowest-dose well (resazurin, 96 h); higher = more viable; settings: RPMI + 10% FBS
How it was run: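 Compounds from 10 mM DMSO stocks were dispensed as dilution series onto HCT116 (500 cells/well) or SW620 (1,000 cells/well) cells growing in 384-well plates in 50 µl RPMI, 10% FBS and a metabolite supplement. Plates were incubated 96 h at 37 °C, 5% CO2, then resazurin (10 µg ml^−1) was added and its conversion to resorufin read by fluorescence at 595 nm after 5 h. Viability is shown as percent of the lowest-dose well for independent replicate cultures. Viability was read by resazurin-to-resorufin conversion and normalised to the lowest-dose vehicle well (=100%).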

Cc1c(N2CCN(C)[C@@H](C)C2)ccc2c3c(c(=O)oc12)CN(C(=O)c1ccc(NS(C)(=O)=O)c(OC(F)(F)F)c1)CC3
Settings	EC50 for viability [nM]
SW620 MTHFD2-/-	> 10000

EC50 for viability [nM]
Settings	metabolite supplement: Adenine	metabolite supplement: Adenosine	metabolite supplement: Guanosine	metabolite supplement: Hypoxanthine	metabolite supplement: Sodium Formate	metabolite supplement: Thymidine	metabolite supplement: Thymidine + Sodium Formate	metabolite supplement: Vehicle
SW620 MTHFD2 -/-	–	–	–	–	> 10000	86.3	0.383	178
SW620 WT	> 10000	> 10000	2970	> 10000	–	1070	–	889

Settings	EC50 for viability [nM]	cell viability [%]
SW620 [1], HPLM (5% dFBS, 1% P/S), metabolite supplement: Vehicle	> 10000	–
SW620 [1], RPMI+GlutaMAX (5% FBS, 1% P/S), metabolite supplement: Vehicle	> 10000	–
SW620 [1], RPMI+GlutaMAX (5% dFBS, 1% P/S), metabolite supplement: 50 µM Hypoxanthine	> 10000	–
SW620 [1], RPMI+GlutaMAX (5% dFBS, 1% P/S), metabolite supplement: Vehicle	553	–
SW620 [1], RPMI+GlutaMAX (10% FBS, 1% P/S), metabolite supplement: Hypoxanthine	7050	–
SW620 [1], RPMI+GlutaMAX (10% FBS, 1% P/S), metabolite supplement: Sodium Formate	6170	–
SW620 [1], RPMI+GlutaMAX (10% FBS, 1% P/S), metabolite supplement: Thymidine	447	–
SW620 [1], RPMI+GlutaMAX (10% FBS, 1% P/S), metabolite supplement: Thymidine + Hypoxanthine	> 10000	–
SW620 [1], RPMI+GlutaMAX (10% FBS, 1% P/S), metabolite supplement: Thymidine + Sodium Formate	> 10000	–
SW620 [2], 0.001 µM, metabolite supplement: 1mM sodium formate	–	100
SW620 [2], 0.001 µM, metabolite supplement: 50uM thymidine	–	99.1
SW620 [2], 0.001 µM, metabolite supplement: 50uM thymidine + 1mM sodium formate	–	99.4
SW620 [2], 0.001 µM, metabolite supplement: 50uM thymidine + 250uM hypoxanthine	–	100
SW620 [2], 0.001 µM, metabolite supplement: 250uM hypoxanthine	–	100
SW620 [2], 0.001 µM, metabolite supplement: vehicle	–	97
SW620 [2], 0.00301 µM, metabolite supplement: 1mM sodium formate	–	98.27
SW620 [2], 0.00301 µM, metabolite supplement: 50uM thymidine	–	97.2
SW620 [2], 0.00301 µM, metabolite supplement: 50uM thymidine + 1mM sodium formate	–	102
SW620 [2], 0.00301 µM, metabolite supplement: 50uM thymidine + 250uM hypoxanthine	–	102.3
SW620 [2], 0.00301 µM, metabolite supplement: 250uM hypoxanthine	–	96.6
SW620 [2], 0.00301 µM, metabolite supplement: vehicle	–	97.3
SW620 [2], 0.00903 µM, metabolite supplement: 1mM sodium formate	–	97.8
SW620 [2], 0.00903 µM, metabolite supplement: 50uM thymidine	–	96
SW620 [2], 0.00903 µM, metabolite supplement: 50uM thymidine + 1mM sodium formate	–	101
SW620 [2], 0.00903 µM, metabolite supplement: 50uM thymidine + 250uM hypoxanthine	–	102
SW620 [2], 0.00903 µM, metabolite supplement: 250uM hypoxanthine	–	98.9
SW620 [2], 0.00903 µM, metabolite supplement: vehicle	–	96.4
SW620 [2], 0.0271 µM, metabolite supplement: 1mM sodium formate	–	100
SW620 [2], 0.0271 µM, metabolite supplement: 50uM thymidine	–	99.6
SW620 [2], 0.0271 µM, metabolite supplement: 50uM thymidine + 1mM sodium formate	–	102
SW620 [2], 0.0271 µM, metabolite supplement: 50uM thymidine + 250uM hypoxanthine	–	104
SW620 [2], 0.0271 µM, metabolite supplement: 250uM hypoxanthine	–	99.5
SW620 [2], 0.0271 µM, metabolite supplement: vehicle	–	97.6
SW620 [2], 0.0816 µM, metabolite supplement: 1mM sodium formate	–	101
SW620 [2], 0.0816 µM, metabolite supplement: 50uM thymidine	–	97.1
SW620 [2], 0.0816 µM, metabolite supplement: 50uM thymidine + 1mM sodium formate	–	105
SW620 [2], 0.0816 µM, metabolite supplement: 50uM thymidine + 250uM hypoxanthine	–	107
SW620 [2], 0.0816 µM, metabolite supplement: 250uM hypoxanthine	–	97.4
SW620 [2], 0.0816 µM, metabolite supplement: vehicle	–	95.4
SW620 [2], 0.245 µM, metabolite supplement: 1mM sodium formate	–	97.7
SW620 [2], 0.245 µM, metabolite supplement: 50uM thymidine	–	85.4
SW620 [2], 0.245 µM, metabolite supplement: 50uM thymidine + 1mM sodium formate	–	104
SW620 [2], 0.245 µM, metabolite supplement: 50uM thymidine + 250uM hypoxanthine	–	107.8
SW620 [2], 0.245 µM, metabolite supplement: 250uM hypoxanthine	–	99.9
SW620 [2], 0.245 µM, metabolite supplement: vehicle	–	86.4
SW620 [2], 0.737 µM, metabolite supplement: 1mM sodium formate	–	95.9
SW620 [2], 0.737 µM, metabolite supplement: 50uM thymidine	–	69.5
SW620 [2], 0.737 µM, metabolite supplement: 50uM thymidine + 1mM sodium formate	–	100
SW620 [2], 0.737 µM, metabolite supplement: 50uM thymidine + 250uM hypoxanthine	–	108
SW620 [2], 0.737 µM, metabolite supplement: 250uM hypoxanthine	–	97
SW620 [2], 0.737 µM, metabolite supplement: vehicle	–	71.13
SW620 [2], 2.21 µM, metabolite supplement: 1mM sodium formate	–	89
SW620 [2], 2.21 µM, metabolite supplement: 50uM thymidine	–	61.5
SW620 [2], 2.21 µM, metabolite supplement: 50uM thymidine + 1mM sodium formate	–	102
SW620 [2], 2.21 µM, metabolite supplement: 50uM thymidine + 250uM hypoxanthine	–	106
SW620 [2], 2.21 µM, metabolite supplement: 250uM hypoxanthine	–	84.7
SW620 [2], 2.21 µM, metabolite supplement: vehicle	–	63.2
SW620 [2], 6.65 µM, metabolite supplement: 1mM sodium formate	–	62.4
SW620 [2], 6.65 µM, metabolite supplement: 50uM thymidine	–	58.1
SW620 [2], 6.65 µM, metabolite supplement: 50uM thymidine + 1mM sodium formate	–	101
SW620 [2], 6.65 µM, metabolite supplement: 50uM thymidine + 250uM hypoxanthine	–	102
SW620 [2], 6.65 µM, metabolite supplement: 250uM hypoxanthine	–	66.4
SW620 [2], 6.65 µM, metabolite supplement: vehicle	–	60.8
SW620 [2], 20 µM, metabolite supplement: 1mM sodium formate	–	39.2
SW620 [2], 20 µM, metabolite supplement: 50uM thymidine	–	54.3
SW620 [2], 20 µM, metabolite supplement: 50uM thymidine + 1mM sodium formate	–	89.9
SW620 [2], 20 µM, metabolite supplement: 50uM thymidine + 250uM hypoxanthine	–	88.6
SW620 [2], 20 µM, metabolite supplement: 250uM hypoxanthine	–	44.2
SW620 [2], 20 µM, metabolite supplement: vehicle	–	55
